In US9878036B2, “Immunomodulatory compositions comprising a polymer matrix and an oil phase” (Sigmoid Pharma Limited, priority 2009, dated 2018):

System: BALB/c mice
Conditions: mouse, in vivo, po

In the case of “ovalbumin alone in solution: model antigen ovalbumin (200 μg/mouse) in bicarbonate buffer, oral comparator”, the “OVA-specific IgG antibodies in sera” value is reported as “variable IgG antibody responses”.
